Results as given in publication PMC9688344, “[^225Ac]Ac-SibuDAB for Targeted Alpha Therapy of Prostate Cancer: Preclinical Evaluation and Comparison with [^225Ac]Ac-PSMA-617” (Cancers, 2022).

Test system: immunocompetent FVB mice
Assay: Tolerability study in immunocompetent mice
Format: in vivo
Text: Five- to six-week-old immunocompetent, female FVB mice were purchased from Charles River Laboratories (Sulzfeld, Germany). After an acclimatization period of at least 7 days, the mice (n = 5 per group) were intravenously injected with 30 kBq [^225Ac]Ac-SibuDAB or 30 kBq [^225Ac]Ac-PSMA-617 and additional mice (n = 7 per group) remained untreated as controls. Mice were monitored by measuring their body mass and potential signs of pain or unease three times a week (Supplementary Material: Section S7). The mice were euthanized on Day 10, Day 28 or on Day 56, respectively, and variable parameters were assessed from blood and tissue samples.
Hematological analysis was performed using blood samples taken by cardiac puncture immediately after euthanasia. Blood and bone marrow smears were prepared and stained using the Pappenheim protocol. The assessment was carried out by a board-certified veterinary anatomic pathologist (AnaPath Services GmbH, Liestal, Switzerland). Blood plasma parameters were determined in plasma after centrifugation of blood samples obtained shortly before euthanasia (Supplementary Material: Section S7).
Tissue sections of formalin-fixed paraffin-embedded (FFPE) spleen, salivary glands and kidneys were prepared and stained with hematoxylin and eosin (H&E) by AnaPath Services GmbH (Liestal, Switzerland). The tissues were analyzed by a board certified veterinary pathologist using a pre-defined scoring system (Supplementary Material: Section S7). […]
The percentage of radioligand bound to mouse or human plasma (A bound) was plotted against the molar ratios of MSA/HSA to radioligand and fitted with a nonlinear regression curve (specific binding with Hill slope, Bmax set to 100%) using GraphPad Prism software (version 8) to obtain the half maximum binding (B 50).
Results: The results are reported in the main article.
Purpose: A tolerability study with normal, immunocompetent FVB mice was con-ducted in order to assess potential side effects to the bone marrow, spleen, salivary glands and kidneys after the application of high activities of the 225Ac-labeled PSMA radioligands.
Methods: Monitoring Body Mass and Signs of Unease: Mice were monitored by meas-uring their body mass (BM) three times a week. The body masses were expressed as the relative body mass, defined as [BMx/BM0], where BMx is the body mass in grams on a given Day x and BM0 is the body mass in grams on Day 0. Endpoint criteria, defined as (i) >15% loss in body mass, (ii) signs of unease and pain or a combination thereof based on a scoring system, were not reached in this stu dy.
Hematology: Blood cell counts were determined in blood samples taken by cardiac puncture immediately after euthanasia and collected in EDTA tubes (Microvette® 100 K3 EDTA, Sarstedt, Germany). Leukocyte, lymphocyte, erythrocyte and thrombocyte counts as well as hemoglobin and hematocrit values were determined using a hematology ana-lyzer (VetScan HM5, Abaxis, United States). Blood smears were prepared on glass slides with cardiac blood. The bone marrow was collected from the femur, diluted in FCS/H2O (2:1 v/v) and smeared onto microscopy slides using a paintbrush. The slides were stained with a May Grünwald solution and subsequently with diluted Giemsa solution using the Pappenheim method and covered with coverslips using mounting medium (Pertex).
The assessment of potential morphological ch anges of the blood cells and counting of the subgroups of leukocytes was performed by a board-certified veterinary pathologist (Ana-Path Services GmbH, Liestal, Switzerland).
Histopathological Analysis: Spleen, salivary glands and kidneys were formalin-fixed and paraffin-embedded. Tissue sections were stained with hematoxylin & eosin (H&E) […]
Blood Plasma Parameters: Blood plasma parameters were determined in plasma ob-tained from centrifuged retrobulbar blood samples collected in lithium-heparin tubes (Mi-crovette® 200 LH, SARSTEDT). The concentrations of blood urea nitrogen (BUN), alkaline […]

O=C([O-])CN1CCN(CC(=O)[O-])CCN(CC(=O)NCC2CCC(C(=O)NC(Cc3ccc4ccccc4c3)C(=O)NCCCCC(NC(=O)NC(CCC(=O)O)C(=O)O)C(=O)O)CC2)CCN(CC(=O)[O-])CC1.[225Ac+3] (stereo not drawn) [[^225Ac]Ac-PSMA-617]
Tolerability (body mass) (30 kBq per mouse, until Day 56): well tolerated | Kidneys: Hyperplasia/hypertrophy, tubular, incidence (Day 10, 30 kBq): 2 | Kidneys: Hyperplasia/hypertrophy, tubular, score average (Day 10, 30 kBq): 1.0 | Kidneys: Hypertrophy/hyperplasia, tubular with ectasia, incidence (Day 10, 30 kBq): 0 | Kidneys: Hypertrophy/hyperplasia, tubular with ectasia, score average (Day 10, 30 kBq): 0.0 | Kidneys: Inflammatory cells, interstitium, incidence (Day 10, 30 kBq): 0 | Kidneys: Inflammatory cells, interstitium, score average (Day 10, 30 kBq): 0.0 | Kidneys: Inflammatory cells, pelvis, incidence (Day 10, 30 kBq): 0 | Kidneys: Inflammatory cells, pelvis, score average (Day 10, 30 kBq): 0.0 | Kidneys: Mineralization, papilla, incidence (Day 10, 30 kBq): 0 | Kidneys: Mineralization, papilla, score average (Day 10, 30 kBq): 0.0 | Kidneys: Tubular basophilia, incidence (Day 10, 30 kBq): 0 | Kidneys: Tubular basophilia, score average (Day 10, 30 kBq): 0.0 | Salivary glands: Ductal hyperplasia with inflammatory cells, incidence (Day 10, 30 kBq): 0 | Salivary glands: Ductal hyperplasia with inflammatory cells, score average (Day 10, 30 kBq): 0.0 | Salivary glands: Hypertrophy acinar, sublingual, incidence (Day 10, 30 kBq): 0 | Salivary glands: Hypertrophy acinar, sublingual, score average (Day 10, 30 kBq): 0.0 | Salivary glands: Mononuclear cell foci, incidence (Day 10, 30 kBq): 1 | Salivary glands: Mononuclear cell foci, score average (Day 10, 30 kBq): 1.0 | Salivary glands: Necrosis, multifocal, serous acinar cells, incidence (Day 10, 30 kBq): two out of five | Salivary glands: Necrosis, multifocal, serous acinar cells, score average (Day 10, 30 kBq): 1.0 | Salivary glands: Vacuolation, incidence (Day 10, 30 kBq): 0 | Salivary glands: Vacuolation, score average (Day 10, 30 kBq): 0.0 | Spleen: Extramedullary hematopoiesis, incidence (Day 10, 30 kBq): 5 | Spleen: Extramedullary hematopoiesis, score average (Day 10, 30 kBq): 1.0 | Spleen: Hyperplasia, lymphoid, incidence (Day 10, 30 kBq): 1 | Spleen: Hyperplasia, lymphoid, score average (Day 10, 30 kBq): 1.0 | Spleen: Pigment, incidence (Day 10, 30 kBq): 5 | Spleen: Pigment, score average (Day 10, 30 kBq): 1.0 | mice with relative increase of neutrophilic blasts (metamyelocytes) in peripheral blood (Day 10, 30 kBq): two out of five | myelopoiesis in bone marrow smears (group value) (Day 10, 30 kBq): 62% | Salivary glands: Necrosis, multifocal, serous acinar cells, incidence (Day 10, 30 kBq, listed as [225Ac]Ac-PSMA-617): 2 | Blood smear, Notes (Day 10, mouse M1): More neutrophilic blasts (Metamyelocyte) | Bone marrow % E (Day 10, mouse M1): 50% | Bone marrow % M (Day 10, mouse M1): 50% | Blood smear, Notes (Day 10, mouse M2): More neutrophilic blasts (Metamyelocyte) | Bone marrow % E (Day 10, mouse M2): 60% | Bone marrow % M (Day 10, mouse M2): 40% | Bone marrow % E (Day 10, mouse M3): 20% | Bone marrow % M (Day 10, mouse M3): 80% | Bone marrow smear, Notes (Day 10, mouse M3): More blasts, neutrophilic row | Bone marrow % E (Day 10, mouse M4): 30% | Bone marrow % M (Day 10, mouse M4): 70% | Bone marrow smear, Notes (Day 10, mouse M4): More blasts, neutrophilic row | Bone marrow % E (Day 10, mouse M5): 30% | Bone marrow % M (Day 10, mouse M5): 70% | Bone marrow smear, Notes (Day 10, mouse M5): More blasts, neutrophilic row | Albumin concentration in blood plasma (Day 28, 30 kBq): 23 g/L | Blood urea nitrogen (Day 28, 30 kBq): 8.7 ± 1.1 mmol/L | Erythrocyte counts (Day 28, 30 kBq): 8.7 ± 0.3 × 10^12/L | Hematocrit (Day 28, 30 kBq): 43 ± 3% | Hemoglobin (Day 28, 30 kBq): 11.3 ± 0.5 g/dL | Kidneys: Hyperplasia/hypertrophy, tubular, incidence (Day 28, 30 kBq): 1 | Kidneys: Hyperplasia/hypertrophy, tubular, score average (Day 28, 30 kBq): 1.0 | Kidneys: Hypertrophy/hyperplasia, tubular with ectasia, incidence (Day 28, 30 kBq): 0 | Kidneys: Hypertrophy/hyperplasia, tubular with ectasia, score average (Day 28, 30 kBq): 0.0 | Kidneys: Inflammatory cells, interstitium, incidence (Day 28, 30 kBq): 0 | Kidneys: Inflammatory cells, interstitium, score average (Day 28, 30 kBq): 0.0 | Kidneys: Inflammatory cells, pelvis, incidence (Day 28, 30 kBq): 0 | Kidneys: Inflammatory cells, pelvis, score average (Day 28, 30 kBq): 0.0 | Kidneys: Mineralization, papilla, incidence (Day 28, 30 kBq): 1 | Kidneys: Mineralization, papilla, score average (Day 28, 30 kBq): 1.0 | Kidneys: Tubular basophilia, incidence (Day 28, 30 kBq): 1
